Usually IC50 stands for the concentration needed to halve the response being measured.

The record followed here is PMC3501516, “Anti-Diabetic Efficacy and Impact on Amino Acid Metabolism of GRA1, a Novel Small-Molecule Glucagon Receptor Antagonist” (PLoS ONE, 2012).

Each structure is given as a SMILES string.

Data set [1] addresses T1, VPAC2R (vasoactive adenylate cyclase-activating polypeptide receptor type 2) (Homo sapiens, UniProt P41587).
T1 construct: expressed in transfected cells
T1 sequence (P41587 24-438): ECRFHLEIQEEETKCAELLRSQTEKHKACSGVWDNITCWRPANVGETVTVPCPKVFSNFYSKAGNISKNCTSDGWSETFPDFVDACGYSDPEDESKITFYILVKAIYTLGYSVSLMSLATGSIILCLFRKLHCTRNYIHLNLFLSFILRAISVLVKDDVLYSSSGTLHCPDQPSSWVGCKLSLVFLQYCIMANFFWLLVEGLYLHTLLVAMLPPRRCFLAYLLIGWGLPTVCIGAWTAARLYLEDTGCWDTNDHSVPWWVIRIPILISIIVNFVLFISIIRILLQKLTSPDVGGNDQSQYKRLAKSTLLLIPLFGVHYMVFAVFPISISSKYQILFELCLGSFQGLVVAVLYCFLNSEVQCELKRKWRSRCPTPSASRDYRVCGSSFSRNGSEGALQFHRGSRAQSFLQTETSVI
The data set can be described thus: Inhibition of agonist-stimulated cAMP production in CHO cells expressing VPAC2R. The settings on record: VPAC2-stimulated. Type of data set: cell-based. From the text: Transfected Chinese hamster ovary (CHO) cell lines were acquired and maintained as previously described, [20]. These included separate cell lines stably expressing human GCGR (hGCGR), mouse GCGR, rhesus GGCR, glucose-dependent insulinotropic peptide receptor (GIPR), GLP-1 receptor (GLP-1R), pituitary adenylate cyclase-activating polypeptide receptor type 1 (PAC1R), and vasoactive adenylate cyclase-activating polypeptide receptor type 2 (VPAC2R). Inhibition of glucagon binding to hGCGR was assayed in cell membranes prepared from the line of CHO cells that expressed the hGCGR. Functional antagonism was assayed by measuring the production of cAMP in intact CHO cells stimulated by agonists specific for their cognate receptors (i.e., glucagon for GCGR-expressing cell lines, GIP for the GIPR-expressing line, etc.). Primary human hepatocytes were obtained from In Vitro Technologies (Baltimore, MD) and glucagon-stimulated glycogenolysis was studied in these as previously described.
(Changes in cAMP serve as a functional read-out for many G protein-coupled receptors.)

A short description of data set [2]: Pharmacokinetics / plasma GRA1 concentrations in hGCGR mice. Type of data set: in vivo. The settings on record: mouse. On the procedure: Under control conditions, hGCGR mice were normoglycemic and treatment of these animals with GRA1 lowered blood glucose concentrations only moderately.
Figure 2 In vivo inhibition of hepatic ^125I-glucagon binding in the hGCGR mouse following (A) acute and (B) chronic dosing with GRA1. The data are mean (±SEM) percent reductions in liver ^125I-glucagon content measured (A) 1, 3, 5, and 8 h after a single oral dose of 3 mg/kg GRA1, and (B) after treatment for 30 days with control diet or food/drug admixtures that provided 3, 6, 10, or 30 mg/kg·day GRA1. Pharmacokinetic analysis performed during the experiment in (A) determined that mean plasma GRA1 concentrations were 0.5, 0.6, 0.5, and 0.7 µM at 1, 3, 5, and 8 h postdose, respectively. TEXT PRINTED IN THE PICTURE: (A) no label printed: Receptor occupancy (%): 64% (Time postdose (h): 1); Receptor occupancy (%): 71% (Time postdose (h): 3); Receptor occupancy (%): 65% (Time postdose (h): 5); Receptor occupancy (%): 73% (Time postdose (h): 8) | (B) no label printed: Receptor occupancy (%): 71% (Dose (mg/kg): 3); Receptor occupancy (%): 78% (Dose (mg/kg): 6); Receptor occupancy (%): 83% (Dose (mg/kg): 10); Receptor occupancy (%): 93% (Dose (mg/kg): 30)
(§1) Figure 3 Blunting of glucagon-induced blood glucose excursions by GRA1 treatment in the (A) hGCGR mouse and (B) rhesus monkey. In (A), mice (n = 8) were administered vehicle or 3, 10 or 30 mg/kg GRA1, then challenged 1 h later (time 0) by intraperitoneal injection of 15 µg/kg glucagon or vehicle. Pharmacokinetic analysis determined that these animals had mean plasma GRA1 concentrations of 0.4, 0.9, and 4.7 µM, respectively, at 1 h postdose. In (B), monkeys (n = 4) were administered 1 mg/kg GRA1 4 h prior to intramuscular injection of 15 µg/kg glucagon or vehicle. At 1 h postdose, the mean plasma GRA1 concentration in these animals was 0.2 µM. *p<0.05; **p<0.01; and ***p<0.001 vs. glucagon-treated control animals.

The test system of the next data set is hGCGR mouse. Briefly: Blunting of glucagon-induced blood glucose excursion in hGCGR mouse. The settings on record: vehicle 1393±179. The class given is in vivo. On the procedure: In mouse studies of glucagon-induced excursions in blood glucose, animals were dosed orally with vehicle (10 mL/kg 0.5% aqueous methylcellulose) or GRA1 one hour prior to challenge by intraperitoneal injection of 15 µg/kg glucagon (Eli Lilly, Indianapolis, IN) or vehicle, [20]. In the studies in monkey, GRA1 or vehicle was administered to chair-restrained animals via a nasogastric tube 4 h prior to intramuscular injection of 15 µg/kg glucagon. Blood glucose measurements were made using a OneTouch glucometer (Lifescan, Milpitas, CA).
as §1

Turning to `COc1ccc2cc(-c3cc(-c4cc(C(F)(F)F)ccc4F)nn3[C@@H](C)c3ccc(C(=O)NCCC(=O)O)cc3)ccc2c1` [GRA1, N-[4-((1S)-1-{3-(2-fluoro-5-trifluoromethylphenyl)-5-[6-methoxynaphth-2-yl]-1H-pyrazol-1-yl}ethyl)benzoyl]-β-alanine], in data set [1], the IC50 amounted to 4.2 µM. The concentration at 1 h came to 400 nM in data set [2] (oral, 3 mg/kg p.o., 1 h postdose (glucagon challenge)); 900 nM in data set [2] (oral, 10 mg/kg p.o., 1 h postdose (glucagon challenge)); 4700 nM in data set [2] (oral, 30 mg/kg p.o., 1 h postdose (glucagon challenge)); 500 nM in data set [2] (single oral 3 mg/kg, 1 h postdose (occupancy experiment)). Besides, the concentration at 3 h in data set [2] (single oral 3 mg/kg, 3 h postdose (occupancy experiment)) was 600 nM. The concentration at 5 h in data set [2] (single oral 3 mg/kg, 5 h postdose (occupancy experiment)) was found to be 500 nM. Moreover, in data set [2] (single oral 3 mg/kg, 8 h postdose (occupancy experiment)), the concentration at 8 h came out at 700 nM. In addition, the “Baseline-subtracted mean AUC0–50 of glucagon-stimulated blood glucose excursion” value came to 812 ± 122 mg·min/dL in the data set on hGCGR mouse (3 mg/kg p.o. 1 h before 15 µg/kg glucagion i.p.), 543 ± 68 mg·min/dL in the data set on hGCGR mouse (10 mg/kg p.o. 1 h before 15 µg/kg glucagon i.p.) and 476 ± 64 mg·min/dL with hGCGR mouse (30 mg/kg p.o. 1 h before 15 µg/kg glucagon i.p.).
